Activity calls are given as the source filed them. The rule behind the calls is not given here.
Legend:
HT-1080 [1] = test: Induction of TBK1 phosphorylation in human HT1080 cells at 20 uM measured after 5 hrs by Western blot analysis; type: functional, cell-based
HT-1080 [2] = test: Induction of TBK1 phosphorylation in STING - knockout human HT1080 cells at 20 uM measured after 5 hrs by Western blot analysis; type: functional, cell-based
Mus musculus [3] = test: Induction of immune-activation effect in wild type female BALB/c mouse assessed as increase in serum IFNbeta level at 15 to 30 mg/kg, ip measured after 24 to 48 hrs by ELISA relative to control; type: functional, organism-based; conditions: dose 15-30 mg/kg, time 24-48 hrs
[4] = biological target: T1, Stimulator of interferon genes protein (Mus musculus) (UniProt Q3TBT3); test: Agonist activity at STING in mouse BMDC cells assessed as change in TBK1 phosphorylation (initially increase and then decreased) at 20 uM measured after 5 hrs by Western blot analysis; type: cell-based; conditions: filed as agonist
T1 sequence (whole entry): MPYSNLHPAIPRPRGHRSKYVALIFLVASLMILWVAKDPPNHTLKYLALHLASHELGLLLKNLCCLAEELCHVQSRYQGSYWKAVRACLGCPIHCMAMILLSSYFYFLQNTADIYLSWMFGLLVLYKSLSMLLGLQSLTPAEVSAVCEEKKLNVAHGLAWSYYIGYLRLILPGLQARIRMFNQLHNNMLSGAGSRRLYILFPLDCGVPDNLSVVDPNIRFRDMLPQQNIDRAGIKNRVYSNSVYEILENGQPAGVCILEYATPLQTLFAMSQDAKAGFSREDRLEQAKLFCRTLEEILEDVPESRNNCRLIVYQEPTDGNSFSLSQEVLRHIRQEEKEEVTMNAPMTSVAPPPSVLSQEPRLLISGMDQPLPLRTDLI

[5] = biological target: T1, Stimulator of interferon genes protein (Mus musculus); test: Agonist activity at STING in mouse BMDM cells assessed as change in TBK1 phosphorylation (initially increase and then decreased) at 20 uM measured after 5 hrs by Western blot analysis; type: cell-based; conditions: filed as agonist
[6] = biological target: Stimulator of interferon genes protein (Homo sapiens) (UniProt Q86WV6); test: Induction of STING-dependent gene expression in human HT-1080 cells assessed as IFNbeta mRNA expression at 20 uM incubated for 8 hrs by qRT-PCR analysis; type: cell-based; conditions: filed as agonist
[7] = biological target: T1, Stimulator of interferon genes protein (Mus musculus); test: Induction of STING dimerization in mouse BMDC cells assessed as dimerization (initially increase and then decreased) at 2.5 to 20 uM measured after 5 hrs by Western blot analysis; type: cell-based; conditions: filed as agonist, dose 2.5-20 µM
[8] = biological target: T1, Stimulator of interferon genes protein (Mus musculus); test: Induction of STING-dependent gene expression in mouse BMDC cells assessed as IFNalpha mRNA expression at 20 uM incubated for 8 hrs by qRT-PCR analysis; type: cell-based; conditions: filed as agonist
[9] = biological target: T1, Stimulator of interferon genes protein (Mus musculus); test: Induction of STING-dependent gene expression in mouse BMDC cells assessed as IFNbeta mRNA expression at 20 uM incubated for 8 hrs by qRT-PCR analysis; type: cell-based; conditions: filed as agonist
Mus musculus [10] = test: Induction of immune-activation effect in wild type female BALB/c mouse assessed as increase in serum TNFalpha level at 15 to 30 mg/kg, ip measured after 24 to 48 hrs by ELISA relative to control; type: functional, organism-based; conditions: dose 15-30 mg/kg, time 24-48 hrs
[11] = biological target: Stimulator of interferon genes protein (Homo sapiens) (UniProt Q86WV6); test: Induction of STING-dependent gene expression in human HT-1080 cells assessed as IFNalpha mRNA expression at 20 uM incubated for 8 hrs by qRT-PCR analysis; type: cell-based; conditions: filed as agonist
[12] = biological target: T1, Stimulator of interferon genes protein (Mus musculus); test: Induction of STING dimerization in mouse BMDM cells assessed as dimerization (initially increase and then decreased) at 2.5 to 20 uM measured after 5 hrs by Western blot analysis; type: cell-based; conditions: filed as agonist, dose 2.5-20 µM
[13] = biological target: Stimulator of interferon genes protein (Homo sapiens) (UniProt Q86WV6); test: Induction of oligomerization of STING in HEK-293T cells stably expressing STING-Flag ( unknown origin) measured after 4 hrs by immunoprecipitation assay; type: cell-based; conditions: filed as agonist

Sequence of Stimulator of interferon genes protein (Homo sapiens) (Q86WV6 whole entry): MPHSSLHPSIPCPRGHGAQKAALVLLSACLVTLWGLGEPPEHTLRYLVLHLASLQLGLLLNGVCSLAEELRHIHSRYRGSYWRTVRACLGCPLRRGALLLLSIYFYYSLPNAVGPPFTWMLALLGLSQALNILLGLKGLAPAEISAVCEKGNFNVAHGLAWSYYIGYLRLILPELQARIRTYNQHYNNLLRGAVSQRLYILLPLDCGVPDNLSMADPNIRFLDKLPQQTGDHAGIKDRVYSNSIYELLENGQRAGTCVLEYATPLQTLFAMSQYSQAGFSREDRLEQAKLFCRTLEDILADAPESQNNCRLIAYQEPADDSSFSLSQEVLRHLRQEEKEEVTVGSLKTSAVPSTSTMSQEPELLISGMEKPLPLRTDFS

| Activity [4] | Activity [5] | Activity [6] | Activity [7] | Activity [8] | Activity [9] | Activity [11] | Activity [12] | Activity [13] | Structure (SMILES) | Activity (HT-1080 [1]) | Activity (HT-1080 [2]) | Activity (Mus musculus [3]) | Activity (Mus musculus [10]) |
| --- | --- | --- | --- | --- | --- | --- | --- | --- | --- | --- | --- | --- | --- |
| – | – | – | – | – | – | – | – | – | O=C(NCCNCCNC(=O)c1ccc([N+](=O)[O-])s1)c1ccc([N+](=O)[O-])s1 | Active | Active | – | – |
| Active | Active | Active | Active | Active | Active | Active | Active | Active | O=C(NCCCCCCCNC(=O)c1ccc([N+](=O)[O-])o1)c1ccc([N+](=O)[O-])o1 | – | – | Active | Active |
| Active | Active | Active | Active | Active | Active | Active | Active | Active | O=C(NCCCCCCCCNC(=O)c1ccc([N+](=O)[O-])o1)c1ccc([N+](=O)[O-])o1 | – | – | Active | Active |

Source: ChEMBL document CHEMBL5385872, “Design and syntheses of a bimolecular STING agonist based on the covalent STING antagonist” (Eur J Med Chem, 2023)
